Reference: patent publication US11060066B2, “Human pluripotent stem cell-based models for predictive developmental neural toxicity” (priority 2014, dated 2021)

Tested on: 3D neural constructs
Assay type: cell-based, human
Protocol: For toxicity screening experiments, cells were seeded as described above (Examples 1 and 2), but with 65,000 cells/well for ECs+MSCs (also 5:1 ratio) and 15,000 cells/well for microglia/macrophage precursors. Neural constructs were treated with non-toxic or toxic compounds starting at day 14, with media exchanged every 2 days. The following screening protocol was developed by the Thomson lab. Toxic chemicals (FIG. 10E) were chosen based on previous literature support for neurotoxicity (Adams et al., Neurotoxicol Teratol 15(3):193-202 (1993); Cooper et al., Science 280(5369):1603-1607 (1998); Crofton et al., ALTEX-Altern Anim Exp 28(1):9-15 (2011); Eskes et al. (2003); Grandjean et al., Lancet Neurol. 13:330 (2014); Lidsky (2003); Radio et al., Neurotoxicol Teratol 32(1):25-35 (2010); Zurich (2002)). […]
After reverse transcription, RNA is removed by RNaseA and RNaseH treatment. […] The indexed cDNA libraries were pooled and sequenced on an Illumina HiSeq2500 with a single 51 bp read and a 10 bp index read.
RSEM expected read counts for each gene were determined by median normalization (utilizing the median normalization function within EB Seq—version 1.5.3) (Leng et al., Bioinformatics 29(8):1035-1043 (2013)). […]

With CCCCCCCC/C=C\CCCCCCCC(=O)O [oleic acid] the “SVM prediction as toxic or non-toxic (control)” value was “neurotoxin” and the “SVM probability of being toxic (ranking of blinded compounds)” value (human) was “higher probability of being toxic than L-741,626 and Ouabain”.
